Common to all, as to conditions: Aorta
The target of assay [1] is T1, Potassium channel protein (Rattus norvegicus) (UniProt Q6I9B6).
T1 sequence (whole entry): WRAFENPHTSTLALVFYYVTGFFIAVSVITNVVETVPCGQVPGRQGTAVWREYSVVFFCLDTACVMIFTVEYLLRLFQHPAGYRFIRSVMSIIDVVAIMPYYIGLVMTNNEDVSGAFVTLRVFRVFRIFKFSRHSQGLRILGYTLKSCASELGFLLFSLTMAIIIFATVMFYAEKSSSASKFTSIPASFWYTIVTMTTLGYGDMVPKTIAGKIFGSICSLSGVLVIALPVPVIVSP
The experiment in a line: Activation of potassium channel in Rattus norvegicus (rat) aortic rings assessed as inhibition of phenylepinephrine-induced contractile response in presence of ATP-sensitive potassium channel inhibitor glibenclamide relative to control.

For assay [2], the target named is T1, Potassium channel protein (Rattus norvegicus). As to the kind of experiment: Activation of potassium channel in Rattus norvegicus (rat) aortic rings assessed as inhibition of phenylepinephrine-induced contractile response in presence of ATP-sensitive potassium channel inhibitor glibenclamide.
Assay [3] shares this target. As to the kind of experiment: Activation of potassium channel in Rattus norvegicus (rat) aortic rings assessed as inhibition of phenylepinephrine-induced contractile response relative to control.
Assay [4] has the same target. The experiment in a line: Activation of potassium channel in Rattus norvegicus (rat) aortic rings assessed as inhibition of phenylepinephrine-induced contractile response in presence of calcium activated potassium channel inhibitor TEA relative to control.
For assay [5] the target is unchanged. As to the kind of experiment: Activation of potassium channel in Rattus norvegicus (rat) aortic rings assessed as inhibition of phenylepinephrine-induced contractile response.
Assay [6] has the same target. As to the kind of experiment: Activation of potassium channel in Rattus norvegicus (rat) aortic rings assessed as inhibition of phenylepinephrine-induced contractile response in presence of calcium activated potassium channel inhibitor TEA.

This is an account of results in ChEMBL document CHEMBL3044973, “Substituted 9-aryl-1,8-acridinedione derivatives and their effects on potassium channels” (Med Chem Res, 2009).

Broadly, the Emax is the maximal effect, on the per cent scale that the assay sets.

Take `CC1CC(=O)C2=C(C1)NC1=C(C(=O)CC(C)C1)C2c1ccc(F)c(C(F)(F)F)c1` (stereo unspecified): the Emax in assay [1] is 22.4%; in assay [3] it was 55%; in assay [4], 15.5%. Also, the Activity entry in assay [2], in assay [5] and in assay [6] was “Dose-dependent effect” throughout. In addition, the pD2 in assay [5] was determined as 4.13.

Regarding `CC1CC(=O)C2=C(C1)NC1=C(C(=O)CC(C)C1)C2c1cc(C(F)(F)F)ccc1F` (stereo unspecified), the Activity result in assay [2], in assay [5] and in assay [6] was “Dose-dependent effect” throughout.

For `CC1CC(=O)C2=C(C1)NC1=C(C(=O)CC(C)C1)C2c1ccc(Cl)c(C(F)(F)F)c1` (stereo unspecified), the Activity result in assay [2], in assay [5] and in assay [6] was “Dose-dependent effect” each time.

Consider `CC1CC(=O)C2=C(C1)NC1=C(C(=O)CC(C)C1)C2c1ccc(F)cc1C(F)(F)F` (stereo unspecified), for which the Activity entry in assay [2], in assay [5] and in assay [6] was “Dose-dependent effect” in each case.

In the case of `CC1CC(=O)C2=C(C1)NC1=C(C(=O)CC(C)C1)C2c1c(F)cccc1C(F)(F)F` (stereo unspecified), the Emax is 23.8% in assay [1], 59.5% in assay [3] and 21.8% in assay [4]. The Activity entry in assay [2], in assay [5] and in assay [6] was “Dose-dependent effect” each time. Moreover, in assay [5], the pD2 was 4.6.

For `CC1CC(=O)C2=C(C1)NC1=C(C(=O)CC(C)C1)C2c1cc(C(F)(F)F)ccc1Cl` (stereo unspecified), the Activity result in assay [2], in assay [5] and in assay [6] was “Dose-dependent effect” each time.

Turning to `CC1CC(=O)C2=C(C1)NC1=C(C(=O)CC(C)C1)C2c1cc(C(F)(F)F)cc(Cl)c1F` (stereo unspecified), the Activity result in assay [2], in assay [5] and in assay [6] was “Dose-dependent effect” throughout.

As to `CC(N/C(=N\C#N)Nc1ccncc1)C(C)(C)C` (stereo unspecified), the maximum response (Emax) in assay [1] is 20.8%; in assay [3], 69.5%; in assay [4] it was 18.5%. The Activity entry in assay [2], in assay [5] and in assay [6] was “Dose-dependent effect” each time. Moreover, in assay [5], the pD2 is 4.71.

Regarding `CC1CC(=O)C2=C(C1)NC1=C(C(=O)CC(C)C1)C2c1cccc(C(F)(F)F)c1F` (stereo unspecified), the Activity entry in assay [2], in assay [5] and in assay [6] was “Dose-dependent effect” each time.

For `CC1CC(=O)C2=C(C1)NC1=C(C(=O)CC(C)C1)C2c1ccc(C(F)(F)F)cc1F` (stereo unspecified), the figures for the Emax in assay [1], in assay [3] and in assay [4] were 27.2%, 57.4% and 27.7%, respectively. Also, the Activity entry in assay [2], in assay [5] and in assay [6] was “Dose-dependent effect” throughout. For the same compound, the pD2 in assay [5] is 4.12.

With `CC1CC(=O)C2=C(C1)NC1=C(C(=O)CC(C)C1)C2c1c(C(F)(F)F)ccc(Cl)c1F` (stereo unspecified), the Activity entry in assay [2], in assay [5] and in assay [6] was “Dose-dependent effect” in each case. Besides, the maximum response (Emax) in assay [3] is 52.2%. Further, the pD2 in assay [5] was determined as 4.38.

Take `CC1CC(=O)C2=C(C1)NC1=C(C(=O)CC(C)C1)C2c1cccc(C(F)(F)F)c1Cl` (stereo unspecified): the values for the Emax in assay [1], in assay [3] and in assay [4] were 29%, 63% and 19.8%, respectively. Further, the Activity result in assay [2], in assay [5] and in assay [6] was “Dose-dependent effect” each time. The pD2 in assay [5] came to 4.23.

For the compound `CC1CC(=O)C2=C(C1)NC1=C(C(=O)CC(C)C1)C2c1cc(F)cc(C(F)(F)F)c1` (stereo unspecified), the Activity entry in assay [2], in assay [5] and in assay [6] was “Dose-dependent effect” each time.
